# Measured values reported in patent publication US20090028969A1, “Compostion for treating skin” (priority 2006, published 2009).
# What was measured:
# [1] = tested on: normal human epidermal melanocytes (line M99-1H6); experiment: Intracellular melanin content of UVB-stimulated human cultured melanocytes; format: cell-based; settings: With UV; for PA (pigmenting activity): vs irradiated control
# Experimental: In order to evaluate the activity on pigmentation, an in vitro experiment, based on the measurement of intracellular melanin content of human cultured melanocytes exposed (UVB-stimulated) or not exposed to radiation, in the absence and in the presence of the test compound, was conducted. […] Normal human epidermal melanocytes from newborn foreskin were cultured at […] in MGM “serum free” medium (Melanocyte Growth Medium, PromoCell®) supplemented with antibiotics. Cultures were maintained at 37° C. in a humidified 5% CO2 atmosphere. Subcultures of human melanocytes were propaged in MGM medium and used just before reaching confluence. Cells were counted and diluted to the desired concentration in culture medium without calf serum. The cultured melanocytes were placed in 24-well plates at a density of 60×10^3 cells per well. Two plates were seeded with cells: one for the measurement of melanin content (“Melanin plate”) and the other for the measurement of cell densities (“Neutral Red” plate). […] Cells were incubated at 37° C., in a 95% air-5% CO2 atmosphere for eight days. During this period cells were exposed to UVB radiation at day 1 (D1), day 2 (D2), day 3 (D3), day 4 (D4), day 7 (D7) and day 8 (D8). UVB radiation exposure was carried out with a parallel bank of T[…]/12 tubes emitting a continuous spectrum between 280 and 320 nm with a peak emission at 312 nm. A UVB dose of 40 mJ/cm^2 was applied at each exposure. Sham-control cells were subjected to the same procedure, but without UV exposure and without treatment. Before exposure, cell monolayers were washed with pre-warmed Phosphate Buffer Solution (PBS) and then exposed to UVB in the presence of PBS (without test product). Immediately after irradiation PBS was replaced by fresh test medium. After treatment the culture medium was removed. The cells were washed with PBS at pH 6.8 and melanin was extracted by adding NaOH-DMSO solution. Melanin extracts were heated at 80° C. for 2 hours. After cooling, aliquots were added in 96-well microplates. Optical density (OD 450 nm) was recorded at 450 nm with a microplate reader (Dynatech MR 5000). Synthetic melanin standards (Sigma) were incubated at the same conditions. This standard curve allowed the transformation of OD 450 nm into the Melanin Unit Equivalent in each well. Melanin content was measured by absorbance at […] in control and treated melanin extracts. Results were expressed as μg melanin per well determined from the standard curve: DO(450 nm)=f([melanin]). Intracellular melanin content was measured on human normal melanocytes (line […]-1H6) after the formerly described treatment and UVB exposures of cultures. […] The melanin content (μg of melanin per well) was corrected by the cellular density of each respective culture (number of cells per well) in order to express the “Pigmentation level” of cells (expressed in pg melanin/cell). The pigmenting activity (PA) of the test product was calculated according the formula: [formula]
# mushroom tyrosinase = settings: enzymatic mushroom tyrosinase assay, literature; cited from earlier work
SMILES,Melanin content ([1]; 1 μg/ml),PA (pigmenting activity) ([1]; 1 μg/ml),Melanin content ([1]; 5 μg/ml),PA (pigmenting activity) ([1]; 5 μg/ml),Melanin content ([1]; 10 μg/ml),PA (pigmenting activity) ([1]; 10 μg/ml),anti-tyrosinase IC50 (mushroom tyrosinase),Melanin content ([1]; 50 μg/ml),PA (pigmenting activity) ([1]; 50 μg/ml),Melanin content ([1]; 100 μg/ml),PA (pigmenting activity) ([1]; 100 μg/ml)
"O=c1cc(-c2ccc(O)c(O)c2)oc2cc(O)cc(O)c12 [Luteolin, 3′,4′,5,7-Tetrahydroxyflavone]",57.56 +/− 0.0 pg melanin/well,−22% (p < 0.01),55.57 +/− 0.0 pg melanin/well,−25% (p < 0.01),54.84 +/− 1.56 pg melanin/well,−26% (p < 0.01),,,,,
"OCC1O[C@@H](Oc2ccc(O)cc2)C(O)C(O)[C@@H]1O (stereo partly drawn) [arbutin, hydroquinone β-d-glucopyranoside]",,,,,,,about 100 μg/ml,,,,
"C[C@@H]1O[C@@H](O[C@@H]2[C@@H](O)[C@H](OCCc3ccc(O)c(O)c3)O[C@H](CO)[C@H]2OC(=O)/C=C/c2ccc(O)c(O)c2)[C@H](O)[C@H](O)[C@H]1O [Verbascoside, 2-(3′,4′-dihydroxyphenyl)ethyl-O-α-1-rhamnopyranosyl-(1→3)-β-d-(4-O-caffeoyl)-glucopyranoside]",,,,,,−20% (p < 0.01),,58.32 +/− 4.44 pg melanin/well,−21% (p < 0.01),57.80 +/− 1.63 pg melanin/well,−22% (p < 0.01)
